Structures are written as SMILES.

Assay [1] has as its system subgenomic genotype 2a replicon (J6 and JFH1 strains). Kind of assay: Genotype 2a hRluc replicon assay in Huh7 cells, Renilla luciferase readout. The conditions noted are these: Hepatitis C virus, Huh-7, 48 h. In kind it is cell-based. As for the experimental part:
Inhibition of HCV replication by compound AP0080978 (enantiomer 2 from Example 1) was also assayed by exposing cells harboring either HCV genotype 1a, HCV genotype 1b, HCV genotype 2a replicons. […] Final DMSO percentage was 1% in a total volume of 1 ml. After a 72 hour treatment period, total RNA was extracted, quantified via RiboGreen™ assay (Invitrogen-Molecular Probes, Eugene, Oreg., USA), and equivalent amounts of RNA were subjected to quantitative RT-PCR to quantify HCV RNA levels. Activity against genotype 1b was re-confirmed using Clone II cells (U.S. Pat. No. 7,049,428) that contain a stable subgenomic replicon (Con1 strain) with a Arg 1164 Gly adaptive mutation that is distinct from the Ser 1179 Ile adaptive mutation present in Clone VI cells. In this assay, cells were seeded into 96-well plates and treated in quadruplicate with varying concentration of compounds for 72 hours. For each replicate culture, HCV RNA levels were measured by blot hybridization and normalized to β-actin RNA levels. Cytotoxicity was measured using an established neutral red dye uptake assay (Korba and Gerin (1992) Antiviral Res 19:55; Okuse et al (2005) Antiviral Res 65: 23). […] Activity and toxicity against genotype 2a was evaluated in Huh7 cells harboring a stable hRluc-containing subgenomic genotype 2a replicon containing sequence from both J6 and JFH1 strains. […]
On the technique in general: A replicon is a self-replicating genome or part of one, used to study replication in cells.

For assay [2], the system named is replicon RNA from 80978-resistant and control Clone A cells in Huh7b cells. The assay can be described thus: Sensitivity of Huh7b cells electroporated with total RNA from resistant or control Clone A cells. In kind it is cell-based, hepatitis C virus. The text has this: To determine whether resistance was replicon-associated, total RNA was extracted from 80978-resistant and control cells and re-introduced via electroporation into naïve Huh7b cells, the parental cell line of Clone A cells. Electroporated cells that harbored replicon were selected with Geneticin™, pooled, and assayed for sensitivity to 80978.

Assay [3] has as its system genotype 1b (Con1 strain) subgenomic replicon in 80978-resistant Clone A cells. Kind of assay: 80978-resistant Clone A cells, HCV RNA by quantitative RT-PCR. In kind it is cell-based. The conditions noted are these: Hepatitis C virus, 72 h. As for the experimental part:
In an effort to gain insight into the target of 80978, Clone A cells were selected for resistance to 80978. Clone A cells are a human hepatoma cell line that contains a stable genotype 1b (Con1 strain) subgenomic replicon. Cells were cultured for 12 days in medium containing 10 μM 80978 and 1 mg/ml Geneticin™ (Invitrogen). Medium was changed every 3-4 days to replenish compound, and cells were split as needed to maintain subconfluent cultures. After 12 days of growth in the presence of 10 μM 80978, the concentration of 80978 was increased to 20 μM and cultured for an additional 19 days. Control Clone A cells were grown in parallel in the presence of diluent only. After this culture period, cells were evaluated for response to 80978.
Control cells and cells that had been cultured in the presence of 80978 were treated in triplicate with 3-fold serial dilutions of compound for 72 hours. At the end of this incubation period, total RNA was extracted, and HCV RNA levels were measured by quantitative RT-PCR using primers that recognize the 3′NTR.

Assay [4] relates to genotype 2a replicon encoding genotype 1b NS4B amino acids 53-254. Kind of assay: Chimeric genotype 1b/2a replicon (NS4B aa 53-254 from 1b) in Huh7.5 cells. In kind it is cell-based, hepatitis C virus. The source says:
That NS4B is the target of 80978 was confirmed by a complementary approach. The differential response to 80978 by HCV genotype 1b and 2a replicons allowed the use of chimeric replicons to narrow down the region of the HCV genotype 1b NS4B coding region that confers sensitivity to 80978. The nucleotide sequence of the wild type HCV genotype 2a NS4B is provided as SEQ ID NO: 7 and the wild type HCV genotype 2a NS4B protein sequence is provided as SEQ ID NO:8. Using a plasmid containing an 80978-resistant stable HCV genotype 2a subgenomic reporter replicon cDNA, six replacement, or chimeric constructs were made, where the regions encoding the following amino acids of NS4B were replaced with the regions encoding the corresponding amino acids of NS4B from HCV genotype 1b: (i) 7-254, (ii) 7-52, (iii) 53-254, (iv) 219-254, (v) 7-52 and 219-254, and (vi) 53 to 218. The full-length NS4B protein is 261 amino acids in length and is provided as SEQ ID NO:2. Thus, if any of these segments of NS4B from genotype 1b are sufficient to confer 80978-sensitivity to a genotype 2a HCV replicon, it will render the chimeric genotype 1b/genotype 2a replicon sensitive to the compound.
Response to 80978 was measured initially in unselected cells. […] All of the chimeric and wild type control constructs were responsive to Cyclosporin A (CsA).

With `O=C(NCc1cccs1)c1nn2c(c1Cl)N[C@H](c1ccco1)C[C@@H]2C(F)(F)F` (single isomer, unassigned) [Compound 80978], the EC50 in assay [1] was greater than 25 µM; in assay [3] it was greater than 25 µM; in assay [4] (Hepatitis C virus, Huh7.5), less than 2.5 µM. Moreover, the figures for the “sensitivity to 80978” value in assay [2] (Huh7b cells electroporated with total RNA from 80978-resistant cells) and in assay [2] (Huh7b cells electroporated with total RNA from control cells) were “maintained resistance” and “sensitive”, respectively. In addition, the “response to 80978” value in assay [4] (Geneticin-selected stable replicon-containing cells, amino acids 53-254) was “responsive”.

The EC50 is the concentration needed to bring the measured effect to its halfway point.

The values above are taken from patent US8809344B2, “Compounds, compositions, and methods for control of hepatitis C viral infections” (priority 2008, dated 2014).
